The assay relates to L1210 leukemia ip in BDF1 mice, survival T/C. In words: NCI In Vivo Anticancer Drug Screen. Data for tumor model L1210 Leukemia (intraperitoneal) in B6D2F1 (BDF1) mice. The settings on record: endpoint: mean survival time, higher = longer survival. The method, boiled down: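 Value reflects the ratio of survival in compound-treated mice to survival in vehicle-treated controls, with both groups carrying the same transplanted tumor.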

Where [1] appears, read: dose: 100.0 mg/kg/injection, schedule: Q01DX009 (ip), vehicle: saline.
Setting [2] is: dose: 100.0 mg/kg/injection, schedule: Q04DX003 (ip), vehicle: saline.
Setting [3] is: dose: 200.0 mg/kg/injection, schedule: Q01DX009 (ip), vehicle: saline.
Where [4] appears, read: dose: 200.0 mg/kg/injection, schedule: Q04DX003 (ip), vehicle: saline.
The mark [5] stands for this setting: dose: 400.0 mg/kg/injection, schedule: Q04DX003 (ip), vehicle: saline.
Where [6] appears, read: dose: 100.0 mg/kg/injection, schedule: Q01DX009 (ip), vehicle: Klucel (hydroxypropylcellulose) (HPC).
Setting [7] is: dose: 100.0 mg/kg/injection, schedule: Q04DX003 (ip), vehicle: Klucel (hydroxypropylcellulose) (HPC).
The mark [8] stands for this setting: dose: 200.0 mg/kg/injection, schedule: Q01DX009 (ip), vehicle: Klucel (hydroxypropylcellulose) (HPC).
Where [9] appears, read: dose: 200.0 mg/kg/injection, schedule: Q04DX003 (ip), vehicle: Klucel (hydroxypropylcellulose) (HPC).
[10] abbreviates: dose: 400.0 mg/kg/injection, schedule: Q01DX009 (ip), vehicle: Klucel (hydroxypropylcellulose) (HPC).
The mark [11] stands for this setting: dose: 400.0 mg/kg/injection, schedule: Q04DX003 (ip), vehicle: Klucel (hydroxypropylcellulose) (HPC).
The mark [12] stands for this setting: dose: 100.0 mg/kg/injection, schedule: Q01DX001 (ip), vehicle: carboxymethylcellulose (CMC).
Setting [13] is: dose: 200.0 mg/kg/injection, schedule: Q01DX001 (ip), vehicle: carboxymethylcellulose (CMC).
Where [14] appears, read: dose: 400.0 mg/kg/injection, schedule: Q01DX001 (ip), vehicle: carboxymethylcellulose (CMC).
The mark [15] stands for this setting: dose: 12.5 mg/kg/injection, schedule: Q01DX009 (ip), vehicle: saline with Tween-80.
Where [16] appears, read: dose: 25.0 mg/kg/injection, schedule: Q01DX009 (ip), vehicle: saline with Tween-80.
[17] abbreviates: dose: 50.0 mg/kg/injection, schedule: Q01DX009 (ip), vehicle: saline with Tween-80.

The structures appear in SMILES notation. Values joined by “and” are separate entries in the source; they are usually repeats but may differ in a detail not shown here. Identical values can stand only once. Toxic doses and inconclusive results are not listed.

Take `Nc1nnnc2c1cnn2C1OC(CO)C(O)C1O` (centres undefined): the T/C was 97 % of control (dose: 100.0 mg/kg/injection, schedule: Q01DX001 (ip), vehicle: other); 101 % of control (dose: 200.0 mg/kg/injection, schedule: Q01DX001 (ip), vehicle: other); 101 % of control (dose: 400.0 mg/kg/injection, schedule: Q01DX001 (ip), vehicle: other).

For the compound `C/C(=C/c1c(C)[nH]c(=O)[nH]c1=O)C(=O)O`, the T/C was 92 % of control under setting [1]; 98 % of control under setting [2]; 95 % of control under setting [3]; 104 % of control under setting [4]; 106 % of control under setting [5].

`OC1CCSc2ccc3ccccc3c21` (centres undefined): the T/C under setting [1] is 114 % of control; the T/C under setting [3] is 104 % of control; the T/C (dose: 400.0 mg/kg/injection, schedule: Q01DX009 (ip), vehicle: saline) was 104 % of control.

For `ClC(Cl)(Cl)C1OCOC(C(Cl)(Cl)Cl)OCO1` (centres undefined), the T/C by setting is: under setting [6], 94 % of control; under setting [7], 98 % of control; under setting [8], 93 % of control; under setting [9], 98 % of control; under setting [10], 94 % of control; under setting [11], 102 % of control.

For `OC(c1ccccc1)c1ccccc1`, the T/C runs as follows: under setting [2], 95 % of control; under setting [4], 100 % of control; under setting [5], 97 % of control.

On to `N#CC(Nc1c(N)nc(N)nc1N)c1ccc(N(CCCl)CCCl)cc1` (centres undefined), for which the T/C is 105 % of control (dose: 50.0 mg/kg/injection, schedule: Q01DX001 (ip), vehicle: carboxymethylcellulose (CMC)); 103 % of control under setting [12]; 103 % of control under setting [13]; 100 % of control under setting [14].

Turning to `O=C(Nc1cccc(C2=NCCCN2)c1)Nc1ccc(NC(=O)Nc2cccc(C3=NCCCN3)c2)c(Cl)c1`, the T/C was 121 % of control (dose: 0.47 mg/kg/injection, schedule: Q01DX Z (ip), vehicle: carboxymethylcellulose (CMC)); 118 % of control (dose: 0.93 mg/kg/injection, schedule: Q01DX Z (ip), vehicle: carboxymethylcellulose (CMC)); 156 % of control and 204 % of control (dose: 3.75 mg/kg/injection, schedule: Q01DX Z (ip), vehicle: carboxymethylcellulose (CMC)); 229 % of control (dose: 7.5 mg/kg/injection, schedule: Q01DX Z (ip), vehicle: carboxymethylcellulose (CMC)); 152 % of control (dose: 18.0 mg/kg/injection, schedule: Q01DX001 (ip), vehicle: carboxymethylcellulose (CMC)); 101 % of control (dose: 25.0 mg/kg/injection, schedule: Q01DX Z (oral), vehicle: carboxymethylcellulose (CMC)). In addition, the T/C is, setting by setting: (dose: 26.0 mg/kg/injection, schedule: Q01DX001 (ip), vehicle: carboxymethylcellulose (CMC)) 150 % of control; (dose: 26.0 mg/kg/injection, schedule: Q01DX001 (ip), vehicle: other) 154 % of control; (dose: 40.0 mg/kg/injection, schedule: Q01DX001 (ip), vehicle: carboxymethylcellulose (CMC)) 150 % of control and 162 % of control; (dose: 40.0 mg/kg/injection, schedule: Q01DX001 (ip), vehicle: other) 171 % of control; (dose: 50.0 mg/kg/injection, schedule: Q01DX Z (oral), vehicle: carboxymethylcellulose (CMC)) 98 % of control; (dose: 60.0 mg/kg/injection, schedule: Q01DX001 (ip), vehicle: carboxymethylcellulose (CMC)) 173 % of control and 200 % of control. For the same compound, the T/C was 185 % of control (dose: 60.0 mg/kg/injection, schedule: Q01DX001 (ip), vehicle: other); 236 % of control (dose: 80.0 mg/kg/injection, schedule: Q01DX001 (ip), vehicle: carboxymethylcellulose (CMC)); 104 % of control (dose: 100.0 mg/kg/injection, schedule: Q01DX Z (oral), vehicle: carboxymethylcellulose (CMC)); 101 % of control (dose: 200.0 mg/kg/injection, schedule: Q01DX Z (oral), vehicle: carboxymethylcellulose (CMC)).

In the case of `CC(=O)NC1C(OC(C)=O)OC(COC(c2ccccc2)(c2ccccc2)c2ccccc2)C(O)C1OC(C)=O` (centres undefined), the T/C by setting is: (dose: 6.25 mg/kg/injection, schedule: Q01DX009 (ip), vehicle: saline with Tween-80) 96 % of control; under setting [15], 93 % of control; under setting [16], 93 % of control; (dose: 25.0 mg/kg/injection, schedule: Q04DX003 (ip), vehicle: saline with Tween-80) 109 % of control; under setting [17], 93 % of control; (dose: 50.0 mg/kg/injection, schedule: Q04DX003 (ip), vehicle: saline with Tween-80) 121 % of control. Besides, the T/C by setting is: (dose: 200.0 mg/kg/injection, schedule: Q04DX003 (ip), vehicle: saline with Tween-80) 91 % of control; (dose: 400.0 mg/kg/injection, schedule: Q04DX003 (ip), vehicle: saline with Tween-80) 88 % of control.

`COc1ccccc1OCC(O)COc1ccccc1OC`: the T/C was 92 % of control under setting [15]; 106 % of control (dose: 12.5 mg/kg/injection, schedule: Q04DX003 (ip), vehicle: saline); 95 % of control under setting [16]; 105 % of control (dose: 25.0 mg/kg/injection, schedule: Q04DX003 (ip), vehicle: saline); 94 % of control under setting [17]; 105 % of control (dose: 50.0 mg/kg/injection, schedule: Q04DX003 (ip), vehicle: saline). For the same compound, the T/C is, setting by setting: (dose: 100.0 mg/kg/injection, schedule: Q01DX001 (ip), vehicle: saline) 104 % of control; (dose: 200.0 mg/kg/injection, schedule: Q01DX001 (ip), vehicle: saline) 100 % of control; (dose: 400.0 mg/kg/injection, schedule: Q01DX001 (ip), vehicle: saline) 102 % of control.

Take `C=CCC(C(C)=O)C(=O)OCC` (centres undefined): the T/C reads like this: under setting [6], 100 % of control; under setting [7], 93 % of control; under setting [8], 96 % of control; under setting [9], 104 % of control; under setting [10], 96 % of control; under setting [11], 97 % of control.

Regarding `COc1ccc(C(=O)C/C(=N\N(C(=O)c2ccc(OC)cc2)c2ccccc2)c2ccc(OC)cc2)cc1`, the T/C under setting [17] was 100 % of control; the T/C (dose: 100.0 mg/kg/injection, schedule: Q01DX009 (ip), vehicle: saline with Tween-80) was 93 % of control; the T/C (dose: 200.0 mg/kg/injection, schedule: Q01DX009 (ip), vehicle: saline with Tween-80) is 98 % of control.

`OCC1C2CCC(C2)C1CO` (centres undefined): the T/C under setting [17] is 96 % of control.

With `Cc1ccc(NC(=O)c2ccccc2)cc1`, the T/C was 95 % of control (dose: 100.0 mg/kg/injection, schedule: Q04DX002 (ip), vehicle: Klucel (hydroxypropylcellulose) (HPC)) and 95 % of control (dose: 200.0 mg/kg/injection, schedule: Q04DX002 (ip), vehicle: Klucel (hydroxypropylcellulose) (HPC)).

Consider `O=NN(CCCl)C(=O)N[C@H]1CCC[C@@H](C(=O)O)C1`, for which the T/C is 353 % of control (dose: 18.0 mg/kg/injection, schedule: Q01DX001 (ip), vehicle: Klucel (hydroxypropylcellulose) (HPC)); 426 % of control (dose: 26.0 mg/kg/injection, schedule: Q01DX001 (ip), vehicle: Klucel (hydroxypropylcellulose) (HPC)); 275 % of control (dose: 40.0 mg/kg/injection, schedule: Q01DX001 (ip), vehicle: Klucel (hydroxypropylcellulose) (HPC)); 216 % of control (dose: 60.0 mg/kg/injection, schedule: Q01DX001 (ip), vehicle: Klucel (hydroxypropylcellulose) (HPC)).

As to `CCCCCCCCCCCCCCCC(CCCCCCCC)CCCCCCCC`, the T/C is 97 % of control (dose: 75.0 mg/kg/injection, schedule: Q01DX001 (ip), vehicle: saline with Tween-80); 110 % of control (dose: 150.0 mg/kg/injection, schedule: Q01DX001 (ip), vehicle: saline with Tween-80); 95 % of control (dose: 300.0 mg/kg/injection, schedule: Q01DX001 (ip), vehicle: saline with Tween-80).

For `NC(=O)N/N=C/Cc1ccc2c(c1)OCO2`, the T/C reads like this: under setting [12], 97 % of control; under setting [13], 87 % of control; under setting [14], 92 % of control.

Source of the values: PubChem BioAssay AID248 (DTP/NCI, 2004).
